Target: T1, thioredoxin reductase 1 (TrxR1, cytosolic) (Rattus norvegicus, UniProt O89049)
T1 construct: gene Txnrd1; highly purified enzyme from rat liver
T1 sequence (O89049 1-499): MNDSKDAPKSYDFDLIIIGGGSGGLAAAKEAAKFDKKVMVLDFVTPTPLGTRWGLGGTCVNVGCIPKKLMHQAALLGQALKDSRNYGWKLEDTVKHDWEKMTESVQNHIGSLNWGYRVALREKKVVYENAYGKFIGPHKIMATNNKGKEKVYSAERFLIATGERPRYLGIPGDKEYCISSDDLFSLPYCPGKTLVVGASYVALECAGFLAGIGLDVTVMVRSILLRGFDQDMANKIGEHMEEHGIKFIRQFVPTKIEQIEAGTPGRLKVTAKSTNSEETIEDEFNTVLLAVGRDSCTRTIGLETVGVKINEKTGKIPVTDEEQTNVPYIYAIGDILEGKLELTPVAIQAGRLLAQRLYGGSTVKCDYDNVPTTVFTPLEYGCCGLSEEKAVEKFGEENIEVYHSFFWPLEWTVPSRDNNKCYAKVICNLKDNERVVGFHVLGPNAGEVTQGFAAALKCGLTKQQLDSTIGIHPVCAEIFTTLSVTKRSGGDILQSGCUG
Experiment: DTNB reduction assay on purified rat liver TrxR1; BIAM labelling of Sec/Cys residues
Type: biochemical

## CCC(=C(c1ccc(OC)cc1)c1ccc(OC)cc1)c1cc[n+]2c(c1)-c1cccc[n+]1[Au-]2([Cl])[Cl].F[P-](F)(F)(F)(F)F [AuTAML]
  DTNB reduction assay on purified rat liver TrxR1; BIAM labelling of Sec/Cys resi: a strong inhibition of TrxR1 activity was observed at low nanomolar concentrations of the Au(III) complex

— PMC10388301, “Exploring the Anticancer Activity of Tamoxifen-Based Metal Complexes Targeting Mitochondria” (Journal of Medicinal Chemistry, 2023)
